Test results: patent US20060106102A1, “Napththalene derivatives which inhibit the cytokine or biological activity of microphage migration inhibitory factor (mif)” (priority 2002, published 2006)

Test system: recombinant human macrophage migration inhibitory factor (MIF)-induced proliferation of S112 human dermal fibroblasts
Test: MIF-induced proliferation of S112 human dermal fibroblasts, 3H-thymidine incorporation
Type: cell-based
Experimental: The activity of each compound was studied in a bioassay utilising MIF-induced proliferation of human dermal fibroblasts. S112 human dermal fibroblasts were propagated in RPMI/10% foetal calf serum (FCS). Prior to experimentation, cells were seeded at 10^5 cells/ml in RPMI/0.1% BSA for 18 hours. At time point zero, culture medium was replaced with RPMI/10% FCS and treatments administered. Cells were treated with recombinant human macrophage migration inhibitory factor (MIF) 50 ng/ml (1.353×10^−9 M) and/or the compound at a 1 or 1000 molar ratio to the concentration of MIF. In some experiments the compound was combined with MIF at time point −30 minutes, prior to adding at time point zero. At time point 30 hours, cells were pulsed with […]. At time point 48 hours, cells were harvested using a semi-automated cell harvester. The radioactivity incorporated into DNA was determined by liquid scintillation counting, with results expressed as [^3H] thymidine incorporation. The proliferation of untreated cells was expressed as 100% and the effect of MIF and each compound expressed in relative %.
The activity of compound 5 was studied in a bioassay utilising MIF-induced proliferation of human dermal fibroblasts. S112 human dermal fibroblasts were propagated in RPMI/10% foetal calf serum (FCS). Prior to experimentation, cells were seeded at 10^5 cells/ml in RPMII/0.1% BSA for 18 hours. At time point zero, culture medium was replaced with RPMI/10% FCS and treatments administered. Cells were treated with recombinant human macrophage migration inhibitory factor (MIF) 50 ng/ml and/or compound 5 at a 1-1000 molar ratio to the concentration of MIF. At a time point 30 hours later, cells were pulsed with 1 μCi/well of ^3H-thymidine. At a time point 48 hours after commencement of the experiment, cells were harvested using a semi-automated cell harvester. The radioactivity incorporated into DNA was determined by liquid scintillation counting, with results expressed as [^3H] thymidine incorporation.

O=S(=O)(O)c1ccc2cc(O)c(O)cc2c1 [Compound 6, 6,7-dihydroxynaphthalene-2-sulfonic acid]
effect on proliferation of S112 cells treated with recombinant human MIF (FIG. 12) (0.013-1.3 μM, six separate experiments): marked inhibitory effect
inhibition at 0.13 µM (Homo sapiens, Fibroblast, concentration 0.13 μM, rhMIF 50 ng/ml, S112 cells, read-out: % inhibition of proliferation compared to vehicle plus rhMIF-treated cells): 47%
